Columns and labels:
pseudocholinesterase = target: T1, pseudocholinesterase (Homo sapiens, UniProt P06276); conditions: plasma; cited from earlier work
T1 construct: hydrolyzed at the ester linkage in plasma by pseudocholinesterase; host or cells: plasma

[1] = system: injury-sensitized dissociated rat sensory neurons; experiment: Patch-clamp electrophysiology, action potentials induced by depolarizing current; assay type: cell-based
Method: Studies were conducted to examine the effect of Atip administration on action potentials induced by depolarizing current. Electrophysiology in injury-sensitized dissociated rat sensory neurons was recorded with patch-clamp, using methods previously described (5).

sensory axons = experiment: Sensory CAP recordings with IV-administered Atip after Dex; assay type: in vivo, rats; conditions: doses indicated for use as α-2 AR antagonist
[2] = system: motor axons (Ventral Root); experiment: Compound action potential (CAP) conduction block, motor CAP recorded at ventral root, drug applied to lumbar plexus exposure; assay type: in vivo, rats; conditions: Atip applied to the nerve; FIGS. 2A-3B together
Description: (§1) A surgical preparation was used to determine whether Atip acts differently on sensory or motor neurons. The procedures used were similar to those described in Petruska et al., 1998 (Experimental Brain Research 121:379-390). Briefly, adult rats received general anesthesia with ketamine/xylazine. The jugular vein, carotid artery, and trachea were intubated for the purposes of administering supplementary anesthesia, monitoring of blood pressure, and measuring end-expired CO2, respectively. Normal body temperature was maintained within 1° C. via a water-based thermal blanket. […]
(§2) Compound action potentials (CAPs) were generated by stimulating the sciatic nerve branches. The CAPs propagated centrally through the lumbar plexus to the dorsal and ventral roots where the sensory and motor CAPs (sCAP and mCAP) were detected with the recording electrodes. Effectiveness of conduction block was assessed by measuring the properties of the CAPs (peak and area) conducted through the lumbar plexus exposure and treated with drug compared to the CAPs in the control condition (vehicle or saline in the lumbar plexus exposure).
(§3) With reference to FIG. 2B, activity in response to electrical stimulation of the peroneal nerve was recorded from sensory and motor fascicles (20-30 sweeps averaged per time point). […]

hTCEpi cells = experiment: Cytotoxicity, Alamar Blue cell viability assay; assay type: cell-based, human; conditions: 24 or 48 hours incubation
Method: Cytotoxicity studies were performed using Human telomerase-immortalized human corneal epithelial cells (hTCEpi cells—obtained through Genon Corp., Menlo Park, CA, USA). The cells were plated at a density of 30,000 cells per well of a 96-well dish in growth media (Defined Keratinocyte Media with growth supplement, Invitrogen, Grand Island, NY, USA). After 24 hours of recovery, cells were treated with either growth media alone or growth media supplemented with 0.5% DMSO (vehicle), the indicated concentration of ATIP, or 0.5% proparacaine (Akorn, Forest Lake, IL). Cells were incubated for 24 or 48 hours at 37° C. in 5% CO2. Cell viability was assessed using an Alamar Blue Assay (Thermo Fisher, Waltham, MA, USA).
With reference to FIGS. 5A and 5B, data are plotted as the fraction of viable cells compared to growth media alone+/−S.E.M (n=3).

small sensory axons = experiment: Nociceptive cutaneous trunk muscle reflex (CTMR) EMG on electrical stimulation of a treated sensory nerve; assay type: in vivo, rats; conditions: sensory nerve treated with Atip 20 ul, 200 uM
Method: To address this, a different model system was used the cutaneous trunk muscle reflex (CTMR), which was previously developed and validated for use in anesthesiology and pain experimentation (4,5).
With reference to FIG. 3B, the effects of Atip on nociceptor sensory conduction are assessed using nociceptive CTM reflex as readout.
The CTMR in rats appears as a puckering or flicking of the back skin and is elicited only by noxious natural stimulation or by electrical stimulation of sufficient strength to recruit A-delta and C-fibers (4,6,7). Activation of only very few of these sensory axons is sufficient to elicit a CTMR, making the system a “natural amplifier” for small-diameter afferent input and resulting in reflex output detectible at the EMG and behavioral level (4,8).

[3] = system: wild type, α2AAR knockout and α2CAR knock out mice; experiment: Paw withdrawal in response to strong pinch after subcutaneous plantar injection; assay type: in vivo; conditions: 5 mM subcutaneously in right plantar paw
Method: Studies testing the effect of Atip were also conducted in α2 receptor subunit knock-out mice. α2AAR knockout and α2CAR knock out mice were used in the study. Animals were injected with 5 mM Atip subcutaneously in their right plantar paw, and vehicle into the left plantar paw. They then received strong pinch to the paw skin and pads on each foot. Right and left paw withdrawal in response to the pinch was assessed.

[4] = system: isolated human DRG Neurons; experiment: Live cell calcium imaging with electric field stimulation; assay type: cell-based
Method: Live cell calcium imaging studies were conducted on isolated human DRG Neurons from post mortem donors. Cells were loaded with 3 uM Fluo 8-AM (AAT Bioquest 21081) containing 0.1% Pluronic F-127 (Sigma P2443) for 20 min. The extracellular solution contained in mM (Sigma): 145 NaCl (S3014), 3 KCl (P3911), 2 CaCl2) (C3881), 1 MgCl2 (M9272), 10 HEPES (H3375), 10 glucose (G5767) adjusted to pH 7.4 with NaOH (72068). Fluo-8-loaded cells were excited at 480 nm and emission was collected at 520 nm with a pcoEDGE sCMOS camera (PCO) mounted on an inverted microscope (Olympus IX71).
For Electric Field stimulation (EFs), images were acquired at 100 Hz for 2.5 sec applying simultaneously a train of 10 pulses (5 Hz, 10 ms). After the recording of the baseline profile at Low (1.5 to 2.0 V) and High (2.5 to 3.0 V) Voltage, a pre incubation of […] of the inhibitor is applied to the well before repeating the EFs procedure (Atip 100 uM, Atip 300 uM, Lidocaine 200 uM (Sigma L7757)). The cells that had less than 50% of the pulse response vs the baseline condition was considered inhibited. A washout of 10 min by perfusion was performed after the last EFs procedure.
Lidocaine was first prepared in stock solution using Ethanol (Sigma 459844), Atip was prepared in stock solution using DMSO (Sigma D8418). Image acquisition and data analysis were performed using MetaMorph software (Molecular Devices).
Neurons with less than 50% of the baseline response to electrical field stimulation were considered inhibited. 300 uM Atip blocked activity in 100% of the cells; 100 uM Atip achieved a 62% blockade.

[5] = system: sensory axons (Dorsal Root); experiment: Compound action potential (CAP) conduction block, sensory CAP recorded at dorsal root, drug applied to lumbar plexus exposure; assay type: in vivo, rats
Description: as §1, §2, §3

T1 sequence (P06276 29-602): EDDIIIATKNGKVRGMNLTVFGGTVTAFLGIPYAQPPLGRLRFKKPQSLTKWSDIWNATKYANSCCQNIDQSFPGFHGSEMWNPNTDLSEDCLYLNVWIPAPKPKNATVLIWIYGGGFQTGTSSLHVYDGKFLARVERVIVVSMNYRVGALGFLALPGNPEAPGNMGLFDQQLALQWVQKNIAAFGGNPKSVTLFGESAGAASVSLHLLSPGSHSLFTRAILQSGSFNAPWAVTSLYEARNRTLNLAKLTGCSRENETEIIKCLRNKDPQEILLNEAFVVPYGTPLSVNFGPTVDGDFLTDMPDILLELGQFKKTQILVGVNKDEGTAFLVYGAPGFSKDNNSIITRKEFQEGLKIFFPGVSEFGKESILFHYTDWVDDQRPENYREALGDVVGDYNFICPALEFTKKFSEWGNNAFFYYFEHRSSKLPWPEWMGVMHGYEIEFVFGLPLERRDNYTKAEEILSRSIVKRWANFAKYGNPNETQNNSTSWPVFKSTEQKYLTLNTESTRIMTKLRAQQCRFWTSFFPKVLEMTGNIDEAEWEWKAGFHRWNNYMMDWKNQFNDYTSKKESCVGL

Structure (SMILES): CCN(CC)CCOC(=O)c1ccc(N)cc1Cl [2-chloroprocaine]
- rate of hydrolysis at the ester linkage, relative (pseudocholinesterase): about four times faster than procaine

Structure (SMILES): CCC1(c2cnc[nH]2)Cc2ccccc2C1 [Atip, 4(5)-(2,3-dihydro-2-ethyl-1H-inden-2-yl)imidazole]
- action potentials induced by depolarizing current [1]: rapidly blocked
- resting membrane potential [1]: does not alter the resting membrane potential
- sensory conduction block by IV-administered Atip (sensory axons): does not itself block conduction
- conduction in motor axons [2]: relative sparing of conduction
- toxicity (fraction of viable cells compared to growth media alone) versus 0.5% proparacaine (hTCEpi cells): reduced toxicity
- EMG of CTMR, nociceptor sensory conduction (small sensory axons): blocks activity in small sensory axons
- nerve toxicity (return of EMG) (small sensory axons; not washed out): does not poison the nerve
- withdrawal of the Atip-injected right paw on pinch ([3]; wild type mice): no withdrawal of the right paw
- withdrawal of the Atip-injected right paw on pinch ([3]; α2AAR knockout mice): no withdrawal of the right paw
- withdrawal of the Atip-injected right paw on pinch ([3]; α2CAR knock out mice): no withdrawal of the right paw
- cells with blocked activity (less than 50% of baseline response to electrical field stimulation) ([4]; 100 uM): 62%
- cells with blocked activity (less than 50% of baseline response to electrical field stimulation) ([4]; 300 uM): 100%
- reversibility of conduction block (CAP peak and area) ([5]; 100 ul Atip undiluted clinical dose 5 mg/ml topically over the nerve, then wash-out): reversible
- conduction in large and small sensory axons ([5]; Atip applied to the nerve, FIGS. 2A-3B together): strongly blocks conduction

Structure (SMILES): CCN(CC)CC(=O)Nc1c(C)cccc1C [lidocaine, Lidocaine]
- efficacy of blockade compared with Atip ([4]; 200 uM, therapeutic concentration): less efficacious than the highest tested concentration of Atip, and similar to the lowest concentration of Atip tested

Structure (SMILES): CCN(CC)CCOC(=O)c1ccc(N)cc1 [procaine]
- rate of hydrolysis at the ester linkage, relative (pseudocholinesterase): about four times faster than tetracaine
